The target in the assay is T1, PACAP-R2 (Homo sapiens, UniProt P32241).
T1 construct: expressed in transfected cells; host or cells: CHO cells
T1 sequence (P32241 31-457): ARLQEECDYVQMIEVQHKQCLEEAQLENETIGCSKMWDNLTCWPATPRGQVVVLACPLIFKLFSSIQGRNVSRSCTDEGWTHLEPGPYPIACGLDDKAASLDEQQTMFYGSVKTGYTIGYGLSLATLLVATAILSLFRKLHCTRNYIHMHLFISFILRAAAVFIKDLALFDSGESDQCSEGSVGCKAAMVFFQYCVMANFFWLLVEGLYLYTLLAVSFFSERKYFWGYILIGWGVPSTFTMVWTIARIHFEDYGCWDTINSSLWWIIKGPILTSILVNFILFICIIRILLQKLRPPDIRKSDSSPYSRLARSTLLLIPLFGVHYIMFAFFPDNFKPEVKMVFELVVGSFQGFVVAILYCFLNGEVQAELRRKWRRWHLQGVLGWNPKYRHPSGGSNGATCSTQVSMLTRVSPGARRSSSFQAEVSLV
In words: Cyclic AMP SPA on CHO cells transfected with PACAP-R2. In kind it is cell-based. Particulars: cAMP SPA, concentration at which 50% of maximum PACAP27 activity is achieved, NA = no detectable activities, read-out: R2 EC50. The method, then: CHO cells expressing the PACAP R3 were plated in 96-well plates (Costar) at 8×10^4 cell/well and grown at 37 C. for 24 hours in α MEM+nucleosides+glutamine (Giobco BRL), 10% FBS, 100 μg/ml Pen/Strep, 0.3 mg/ml glutamine, 1 mM HEPES, 0.5 mg/ml Geneticin (Gibco BRL). The media was removed and the plates were washed with PBS. The cells were incubated with a peptide, in Hepes-PBS-BSA with 0.4 mg/mlSoybean Trypsin Inhibitor, 0.5 mg/ml Bacitracin, 100 uM IBMX, for 15 min at 37 C. Cyclic AMP in the cell extracts was quantitated using the cAMP SPA direct screening assay system (Amersham Pharmacia Biotech Inc, Piscataway, N.J.,). The peptides shown in Table 3 were assayed for cAMP activity.
EC50 is defined as the concentration of the polypeptide at which 50% of maximum PACAP27 activity is achieved. “NA” denotes no detectable activities. “R3 Selectivity” is derived from the ratio of EC50 at R2 versus EC50 at R3.

We go through nine molecules from US6972319B1, “Pituitary adenylate cyclase activating peptide (PACAP)receptor 3 (R3) agonists and their pharmacological methods of use” (priority 1999, dated 2005).

Structures are written as SMILES.

By EC50 is commonly meant the midpoint of the concentration-response curve. For `CC[C@H](C)[C@H](NC(=O)[C@H](CO)NC(=O)[C@H](CC(N)=O)NC(=O)[C@H](CC(C)C)NC(=O)[C@H](Cc1ccc(O)cc1)NC(=O)[C@H](CCCCN)NC(=O)[C@H](CCCCN)NC(=O)[C@H](C)NC(=O)[C@H](C)NC(=O)[C@H](CCSC)NC(=O)[C@H](CCC(N)=O)NC(=O)[C@H](CCCCN)NC(=O)[C@H](CCCNC(=N)N)NC(=O)[C@H](CC(C)C)NC(=O)[C@H](CCCNC(=N)N)NC(=O)[C@@H](NC(=O)[C@H](Cc1ccc(O)cc1)NC(=O)[C@H](CC(N)=O)NC(=O)[C@H](CC(=O)O)NC(=O)[C@@H](NC(=O)[C@H](Cc1ccccc1)NC(=O)[C@@H](NC(=O)[C@H](C)NC(=O)[C@H](CC(=O)O)NC(=O)[C@H](CO)NC(=O)[C@@H](N)Cc1c[nH]cn1)C(C)C)[C@@H](C)O)[C@@H](C)O)C(=O)N[C@@H](CCCCN)C(=O)N[C@@H](CC(N)=O)C(=O)N[C@@H](CCCCN)C(=O)N[C@@H](CC(C)C)C(=O)O` [Peptide R3P162], the EC50 was 0.02 µM.

As to `CC[C@H](C)[C@H](NC(=O)[C@H](CO)NC(=O)[C@H](CC(N)=O)NC(=O)[C@H](CC(C)C)NC(=O)[C@H](Cc1ccc(O)cc1)NC(=O)[C@H](CCCCN)NC(=O)[C@H](CCCCN)NC(=O)[C@H](CCSC)NC(=O)[C@H](C)NC(=O)[C@H](CCSC)NC(=O)[C@H](CCC(N)=O)NC(=O)[C@H](CCCCN)NC(=O)[C@H](CCCNC(=N)N)NC(=O)[C@H](CC(C)C)NC(=O)[C@H](CCCNC(=N)N)NC(=O)[C@@H](NC(=O)[C@H](Cc1ccc(O)cc1)NC(=O)[C@H](CC(N)=O)NC(=O)[C@H](CC(=O)O)NC(=O)[C@@H](NC(=O)[C@H](Cc1ccccc1)NC(=O)[C@@H](NC(=O)[C@H](C)NC(=O)[C@H](CC(=O)O)NC(=O)[C@H](CO)NC(=O)[C@@H](N)Cc1c[nH]cn1)C(C)C)[C@@H](C)O)[C@@H](C)O)C(=O)N[C@@H](CCCCN)C(=O)N[C@@H](CC(N)=O)C(=O)N[C@@H](CCCCN)C(=O)N[C@@H](CCCNC(=N)N)C(=O)O` [Peptide R3P106], the EC50 worked out at 0.002 µM.

As to `CC[C@H](C)[C@H](NC(=O)[C@H](CO)NC(=O)[C@H](CC(N)=O)NC(=O)[C@H](CC(C)C)NC(=O)[C@H](Cc1ccc(O)cc1)NC(=O)[C@H](CCCCN)NC(=O)[C@H](CCCCN)NC(=O)[C@H](C)NC(=O)[C@H](C)NC(=O)[C@H](CCSC)NC(=O)[C@H](CCC(N)=O)NC(=O)[C@H](CCCCN)NC(=O)[C@H](CCCNC(=N)N)NC(=O)[C@H](CC(C)C)NC(=O)[C@H](CCCNC(=N)N)NC(=O)[C@@H](NC(=O)[C@H](Cc1ccc(O)cc1)NC(=O)[C@H](CC(N)=O)NC(=O)[C@H](CC(=O)O)NC(=O)[C@@H](NC(=O)[C@H](Cc1ccccc1)NC(=O)[C@@H](NC(=O)[C@H](C)NC(=O)[C@H](CC(=O)O)NC(=O)[C@H](CO)NC(=O)[C@@H](N)Cc1c[nH]cn1)C(C)C)[C@@H](C)O)[C@@H](C)O)C(=O)N[C@@H](CCCCN)C(=O)N[C@@H](CC(N)=O)C(=O)N[C@@H](CCCCN)C(=O)N[C@@H](Cc1c[nH]c2ccccc12)C(=O)O` [Peptide R3P170], the EC50 was 0.02 µM.

Turning to `CC[C@H](C)[C@H](NC(=O)[C@H](CO)NC(=O)[C@H](CC(N)=O)NC(=O)[C@H](CC(C)C)NC(=O)[C@H](Cc1ccc(O)cc1)NC(=O)[C@H](CCCCN)NC(=O)[C@H](CCCCN)NC(=O)[C@H](C)NC(=O)[C@H](C)NC(=O)[C@H](CCSC)NC(=O)[C@H](CCC(N)=O)NC(=O)[C@H](CCCCN)NC(=O)[C@H](CCCNC(=N)N)NC(=O)[C@H](CC(C)C)NC(=O)[C@H](CCCNC(=N)N)NC(=O)[C@@H](NC(=O)[C@H](Cc1ccc(O)cc1)NC(=O)[C@H](CC(N)=O)NC(=O)[C@H](CC(=O)O)NC(=O)[C@@H](NC(=O)[C@H](Cc1ccccc1)NC(=O)[C@@H](NC(=O)[C@H](C)NC(=O)[C@H](CC(=O)O)NC(=O)[C@H](CO)NC(=O)[C@@H](N)Cc1c[nH]cn1)C(C)C)[C@@H](C)O)[C@@H](C)O)C(=O)N[C@@H](Cc1ccc(O)cc1)C(=O)N[C@@H](CC(N)=O)C(=O)N[C@@H](CCCCN)C(=O)N[C@@H](CCCNC(=N)N)C(=O)O` [Peptide R3P133], the EC50 amounted to 0.008 µM.

As to `CC[C@H](C)[C@H](NC(=O)[C@H](CO)NC(=O)[C@H](CC(N)=O)NC(=O)[C@H](CC(C)C)NC(=O)[C@H](Cc1ccc(O)cc1)NC(=O)[C@H](CCCCN)NC(=O)[C@H](CCCCN)NC(=O)[C@@H](NC(=O)[C@H](C)NC(=O)[C@H](CCSC)NC(=O)[C@H](CCC(N)=O)NC(=O)[C@H](CCCCN)NC(=O)[C@H](CCCNC(=N)N)NC(=O)[C@H](CC(C)C)NC(=O)[C@H](CCCNC(=N)N)NC(=O)[C@@H](NC(=O)[C@H](Cc1ccc(O)cc1)NC(=O)[C@H](CC(N)=O)NC(=O)[C@H](CC(=O)O)NC(=O)[C@@H](NC(=O)[C@H](Cc1ccccc1)NC(=O)[C@@H](NC(=O)[C@H](C)NC(=O)[C@H](CC(=O)O)NC(=O)[C@H](CO)NC(=O)[C@@H](N)Cc1c[nH]cn1)C(C)C)[C@@H](C)O)[C@@H](C)O)[C@@H](C)O)C(=O)N[C@@H](CCCCN)C(=O)N[C@@H](CC(N)=O)C(=O)N[C@@H](CCCCN)C(=O)N[C@@H](CCCNC(=N)N)C(=O)O` [Peptide R3P112], the EC50 amounted to 0.004 µM.

Take `CC[C@H](C)[C@H](NC(=O)[C@H](CO)NC(=O)[C@H](CC(N)=O)NC(=O)[C@H](CC(C)C)NC(=O)[C@H](Cc1ccc(O)cc1)NC(=O)[C@H](CCCCN)NC(=O)[C@H](CCCCN)NC(=O)[C@H](C)NC(=O)[C@H](C)NC(=O)[C@H](CCSC)NC(=O)[C@H](CCC(N)=O)NC(=O)[C@H](CCCCN)NC(=O)[C@H](CCCNC(=N)N)NC(=O)[C@H](CC(C)C)NC(=O)[C@H](CCCNC(=N)N)NC(=O)[C@@H](NC(=O)[C@H](Cc1ccc(O)cc1)NC(=O)[C@H](CC(N)=O)NC(=O)[C@H](CC(=O)O)NC(=O)[C@@H](NC(=O)[C@H](Cc1ccccc1)NC(=O)[C@@H](NC(=O)[C@H](C)NC(=O)[C@H](CC(=O)O)NC(=O)[C@H](CO)NC(=O)[C@@H](N)Cc1c[nH]cn1)C(C)C)[C@@H](C)O)[C@@H](C)O)C(=O)N[C@@H](CCCCN)C(=O)N[C@@H](CC(N)=O)C(=O)N[C@@H](C)C(=O)N[C@@H](CCCNC(=N)N)C(=O)O` [Peptide R3P134]: the EC50 stood at 0.04 µM.

Take `CC[C@H](C)[C@H](NC(=O)[C@H](CO)NC(=O)[C@H](CC(N)=O)NC(=O)[C@H](CC(C)C)NC(=O)[C@H](Cc1ccc(O)cc1)NC(=O)[C@H](CCCCN)NC(=O)[C@H](CCCCN)NC(=O)[C@H](C)NC(=O)[C@H](C)NC(=O)[C@H](CCSC)NC(=O)[C@H](CCC(N)=O)NC(=O)[C@H](CCCCN)NC(=O)[C@H](CCCNC(=N)N)NC(=O)[C@H](CC(C)C)NC(=O)[C@H](CCCNC(=N)N)NC(=O)[C@@H](NC(=O)[C@H](Cc1ccc(O)cc1)NC(=O)[C@H](CC(N)=O)NC(=O)[C@H](CC(=O)O)NC(=O)[C@@H](NC(=O)[C@H](Cc1ccccc1)NC(=O)[C@@H](NC(=O)[C@H](C)NC(=O)[C@H](CC(=O)O)NC(=O)[C@H](CO)NC(=O)[C@@H](N)Cc1c[nH]cn1)C(C)C)[C@@H](C)O)[C@@H](C)O)C(=O)N[C@@H](CCCCN)C(=O)N[C@@H](CC(N)=O)C(=O)N[C@@H](CCCCN)C(=O)N[C@@H](CO)C(=O)O` [Peptide R3P167]: the EC50 turned out to be 0.3 µM.

For `CC[C@H](C)[C@H](NC(=O)[C@H](CO)NC(=O)[C@H](CC(N)=O)NC(=O)[C@H](CC(C)C)NC(=O)[C@H](Cc1ccc(O)cc1)NC(=O)[C@H](CCCCN)NC(=O)[C@H](CCCCN)NC(=O)[C@H](C)NC(=O)[C@H](C)NC(=O)[C@H](CCSC)NC(=O)[C@H](CCC(N)=O)NC(=O)[C@H](CCCCN)NC(=O)[C@H](CCCNC(=N)N)NC(=O)[C@H](CC(C)C)NC(=O)[C@H](CCCNC(=N)N)NC(=O)[C@@H](NC(=O)[C@H](Cc1ccc(O)cc1)NC(=O)[C@H](CC(N)=O)NC(=O)[C@H](CC(=O)O)NC(=O)[C@@H](NC(=O)[C@H](Cc1ccccc1)NC(=O)[C@@H](NC(=O)[C@H](C)NC(=O)[C@H](CC(=O)O)NC(=O)[C@H](CO)NC(=O)[C@@H](N)Cc1c[nH]cn1)C(C)C)[C@@H](C)O)[C@@H](C)O)C(=O)N[C@@H](CCCCN)C(=O)N[C@@H](CC(N)=O)C(=O)N[C@@H](CCCCN)C(=O)N[C@@H](CCSC)C(=O)O` [Peptide R3P163], the EC50 was found to be 0.04 µM.

Turning to `CC[C@H](C)[C@H](NC(=O)[C@H](CO)NC(=O)[C@H](CC(N)=O)NC(=O)[C@H](CC(C)C)NC(=O)[C@H](Cc1ccc(O)cc1)NC(=O)[C@H](CCCCN)NC(=O)[C@H](CCCCN)NC(=O)[C@H](C)NC(=O)[C@H](C)NC(=O)[C@H](CCSC)NC(=O)[C@H](CCC(N)=O)NC(=O)[C@H](CCCCN)NC(=O)[C@H](CCCNC(=N)N)NC(=O)[C@H](CC(C)C)NC(=O)[C@H](CCCNC(=N)N)NC(=O)[C@@H](NC(=O)[C@H](Cc1ccc(O)cc1)NC(=O)[C@H](CC(N)=O)NC(=O)[C@H](CC(=O)O)NC(=O)[C@@H](NC(=O)[C@H](Cc1ccccc1)NC(=O)[C@@H](NC(=O)[C@H](C)NC(=O)[C@H](CC(=O)O)NC(=O)[C@H](CO)NC(=O)[C@@H](N)Cc1c[nH]cn1)C(C)C)[C@@H](C)O)[C@@H](C)O)C(=O)N[C@H](C(=O)N[C@@H](CC(N)=O)C(=O)N[C@@H](CCCCN)C(=O)N[C@@H](CCCNC(=N)N)C(=O)O)[C@@H](C)CC` [Peptide R3P123], the EC50 worked out at 0.005 µM.
